# In publication PMC5548886 (Cancer Medicine, 2017):
# Tests used:
# [1] = system: tumor metabolic activity (SUV); assay: Metabolic tumor response by 18[F]-FDG-PET; assay type: in vivo, human
# Protocol: Pharmacodynamic markers were examined using peripheral blood samples, tumor and nevi biopsies (when available) and tumor imaging. BRAF mutation status was determined by Sanger sequencing. Pharmacodynamic markers analyzed, in available tumor/nevus samples obtained before treatment or archival tissue and during treatment on cycle 1, day 8 or day 15, including cytoplasmic p‐MEK, p‐ERK, BIM, c‐KIT, p‐AKT473, pS6 and PTEN, and nuclear p‐ERK, Ki‐67, PARP, cyclin D1, MITF, p27, and p53. Biomarker expression was determined by calculating the percentage of change in the H‐score (14) between on‐treatment and fresh/archival pretreatment specimens. Blood levels of VEGFR‐2 and were assessed before and at multiple time points while on treatment using enzyme‐linked immunosorbent assay (ELISA). […] Changes in standard uptake value (SUV) were determined by a blinded, independent central imaging review panel. Complete metabolic response (CMR) was complete resolution of tumor FDG‐PET uptake so SUV is the same as background. Partial metabolic response (PMR) decrease in sum of the tumor SUV of ≥25% from the baseline scan. Progressive metabolic disease (PMD) was defined as an increase in tumor SUV of ≥25% from the baseline scan, or the appearance of new FDG‐PET uptake in metastatic lesions. Stable metabolic disease (SMD) was defined as a change in tumor SUV between the PMR and PMD criteria.
# [2] = system: patients with locally advanced or metastatic melanoma; assay: Phase I dose-escalation: safety, adverse events (NCI CTCAE v3.0), DLT and MTD; assay type: in vivo
# From the text: This study was an open‐label, multicenter, nonrandomized, phase I/II, dose‐escalation study of orally administered RAF265. […] The study was comprised of two phases: A dose escalation phase and an expansion phase at the MTD/RP2D. The dose‐escalation phase was guided by pharmacokinetics (PK), pharmacodynamics (PD) and safety. […] In the expansion phase (cohort 7.1) the PK run in was omitted and patients received a loading dose in 3 divided doses followed by lower daily dose beginning on Cycle 1, Day 2. The cycle length was 28 days in all cohorts. Here, we report the dose escalation and expansion arm investigating a continuous treatment regimen.
# Medical history and demographics were collected at screening. The safety of study medication was evaluated on the basis of rate, type, severity graded in accordance with NCI CTCAE version 3.0. Safety assessments consisted of collecting all AEs, serious adverse events (SAEs) with their severity and relationship with study drug, and pregnancies. They included the regular monitoring of hematology, blood chemistry and urine performed at the study center/central laboratory and regular assessments of vital signs, physical condition, body weight, performance status, and cardiac data (i.e. electrocardiogram (ECG)/echocardiogram (ECHO)). Abnormalities in clinical laboratory tests that were considered clinically significant by the Investigator were recorded on the AE CRF. Dose‐limiting toxicities (DLTs) were defined for various organ systems and other clinically relevant adverse effects (Table S1). The DLT window was the first cycle while AEs were captured for the entire course of treatment. Evaluation of tumor response was conducted at Baseline, and at the end of every 8 weeks of treatment. Response was assessed using the Response Evaluation Criteria in Solid Tumors (RECIST) 1.0. A complete or partial response (CR or PR) was confirmed at least 28 days after the first assessment that documented response and every two cycles thereafter until disease progression, initiation of confounding anticancer therapy, death, loss to follow‐up, withdrawal of consent, or study termination. All patients discontinuing from the study for progressive disease were to have their disease progression documented by radiologic evaluation.
# The MTD was defined as the dose level with 16–33.3% probability of a DLT. […] Descriptive statistic were used for the analysis of PK, biomarker analysis and tumor response data.
smiles,measurement,setting,value
Cn1c(Nc2ccc(C(F)(F)F)cc2)nc2cc(Oc3ccnc(-c4ncc(C(F)(F)F)[nH]4)c3)ccc21 [RAF265],"PMR, patients","[1]; BRAF WT disease, C1D15, 1 of 29",3.4%
same,"PMR, patients","[1]; BRAF mutant tumors, C1D15, 8 of 33",24.2%
same,"PMR, patients","[1]; BRAF-WT disease, C1D28, 3 of 28",10.7%
same,"PMR, patients","[1]; BRAF-mutant tumors, C1D28, 8 of 28",28.6%
same,"partial metabolic response (PMR), patients","[1]; C1D15, 10 of 65",15.4%
same,"progressive metabolic disease (PMD), patients","[1]; C1D15, 65 patients",13.8%
same,"stable metabolic disease (SMD), patients","[1]; C1D15, 65 patients",70.8%
same,"partial metabolic response (PMR), patients","[1]; C1D28, 58 evaluable patients, all dose levels",20.7%
same,"progressive metabolic disease (PMD), patients","[1]; C1D28, 58 patients",17.2%
same,"stable metabolic disease (SMD), patients","[1]; C1D28, 58 patients",62.1%
same,patients with RECIST-defined responses who also had partial metabolic response,[1]; in vivo,Five of eight
same,deaths within 28 days of last administration of the study drug,"[2]; 5 deaths, none deemed treatment related",6.5%
same,"AEs requiring dose adjustment or interruption, patients","[2]; human, in vivo",39%
same,Abdominal pain (treatment-emergent grade 3/4),"[2]; human, in vivo",1 (2.4%) n (%)
same,Angina unstable (treatment-emergent grade 3/4),"[2]; human, in vivo",1 (2.4%) n (%)
same,Ataxia (treatment-emergent grade 3/4),"[2]; human, in vivo",1 (2.4%) n (%)
same,Basal cell carcinoma (treatment-emergent grade 3/4),"[2]; human, in vivo",1 (2.4%) n (%)
same,Blood lactic acid increased (treatment-emergent grade 3/4),"[2]; human, in vivo",1 (2.4%) n (%)
same,Cutaneous lupus erythematosus (treatment-emergent grade 3/4),"[2]; human, in vivo",1 (2.4%) n (%)
same,Decreased appetite (treatment-emergent grade 3/4),"[2]; human, in vivo",2 (4.8%) n (%)
same,Diarrhea (treatment-emergent grade 3/4),"[2]; human, in vivo",4 (9.8%) n (%)
same,Dyspnea (treatment-emergent grade 3/4),"[2]; human, in vivo",1 (2.4%) n (%)
same,Fatigue (treatment-emergent grade 3/4),"[2]; human, in vivo",6 (14.4%) n (%)
same,Hematological (treatment-emergent grade 3/4),"[2]; human, in vivo",12 (29.2%) n (%)
same,Hypertension (treatment-emergent grade 3/4),"[2]; human, in vivo",4 (9.8%) n (%)
same,Hypophosphatemia (treatment-emergent grade 3/4),"[2]; human, in vivo",1 (2.4%) n (%)
same,Lipase increased (treatment-emergent grade 3/4),"[2]; human, in vivo",2 (4.8%) n (%)
same,Neutropenia (treatment-emergent grade 3/4),"[2]; human, in vivo",4 (9.8%) n (%)
same,Pancytopenia (treatment-emergent grade 3/4),"[2]; human, in vivo",1 (2.4%) n (%)
same,Pulmonary embolism (treatment-emergent grade 3/4),"[2]; human, in vivo",2 (4.8%) n (%)
same,SAE constipation,"[2]; human, in vivo",2.6%
same,SAE dehydration,"[2]; human, in vivo",5.2%
same,SAE pulmonary embolism,"[2]; human, in vivo",6.5%
same,SAE retinopathy,"[2]; human, in vivo",2.6%
same,SAE thrombocytopenia,"[2]; human, in vivo",3.9%
same,Squamous cell carcinoma (treatment-emergent grade 3/4),"[2]; human, in vivo",2 (4.8%) n (%)
same,Thrombocytopenia (treatment-emergent grade 3/4),"[2]; human, in vivo",7 (17.1%) n (%)
same,"Total (n), treatment-emergent grade 3/4 events","[2]; human, in vivo",41 (53.2%) n (%)
same,Vitreous floaters (treatment-emergent grade 3/4),"[2]; human, in vivo",2 (4.8%) n (%)
same,Weight loss (treatment-emergent grade 3/4),"[2]; human, in vivo",1 (2.4%) n (%)
same,decreased appetite requiring dose adjustment or interruption,"[2]; human, in vivo",5.2%
same,"development of hypertension, patients","[2]; human, in vivo",17%
same,diarrhea requiring dose adjustment or interruption,"[2]; human, in vivo",6.5%
same,fatigue requiring dose adjustment or interruption,"[2]; human, in vivo",7.8%
same,hypertension requiring dose adjustment or interruption,"[2]; human, in vivo",5.2%
same,nausea requiring dose adjustment or interruption,"[2]; human, in vivo",5.2%
same,overall rate of grade 3 and 4 toxicities,"[2]; human, in vivo",53.2%
same,photopsia requiring dose adjustment or interruption,"[2]; human, in vivo",5.2%
same,"serious adverse events (SAEs), patients","[2]; human, in vivo",37.7%
same,thrombocytopenia requiring dose adjustment or interruption,"[2]; human, in vivo",3.9%
same,vitreous floaters requiring dose adjustment or interruption,"[2]; human, in vivo",5.2%
same,"vitreous floaters, treatment-related adverse effect, patients","[2]; human, in vivo",27%
same,patients with dose-limiting toxicities,"[2]; human, in vivo, 28 days",6 patients
same,maximum tolerated dose (MTD),[2]; once daily given continuously (dose level 6),48 mg
